{
  "source": "patent US9968635B2",
  "about": "“Treatment of skin and soft tissue infection with nitric oxide” (priority 2012, dated 2018)",
  "key": {"[1]": {"experiment": "Weight gain of carriers on bubbling nitric oxide gas", "format": "physicochemical", "conditions": "NO gas bubbled 40 hr, 25 °C", "experimental": "This example illustrates one technique for preparing a composition in accordance with one embodiment of the invention. An accurate amount of a carrier (HNC 167-62) (see below) was introduced into a system. The carrier weight used in these experiments was approximately 250 g and the vessel size was 500 ml. The vessel was equipped with a mechanical stirrer, gas inlet, and gas outlet and was previously purged with argon for about an hour. The temperature of the carrier was kept at about 25-30° C. NO gas regulated at 5 psi (1 psi is about 6,900 Pa) and was then introduced at a controlled rate of about 1 bubble/s with continuous stirring. […] After 6 hours, the weight of the carrier had increased by 0.15%, by 12 hours by 0.25%, and by 24 hours by 0.56%. These increases in weight were believed to be significant considering the relative small molecular weight of NO versus the carrier. […] The carrier also can solidify upon cooling if the carrier is initially a solid at lower temperature.\nEach carrier was taken in a 500 mL three necked flask equipped with a mechanical stirrer, gas inlet and a gas outlet. The system was purged with argon for one hour at room temperature (25° C.). Then nitric oxide gas was bubbled into the system. Then, nitric oxide gas was bubbled through carrier for stipulated amount of time. The changes in weight and color were noted. […]"}, "[2]": {"tested_on": "micro-capillary blood flow to skin", "experiment": "Laser Doppler study with closed Hilltop chamber on forearm, 10,000 ppm NO (Example 5)", "format": "in vivo, human", "conditions": "applied to the skin at 1/10% in alcohol", "excerpt": "The formulation used in these studies contained nitric oxide dispersed in a lipid matrix. […] Nitric oxide is a very rapid acting molecule, and these studies used a system that employed laser Doppler with a covered chamber. The formulation was placed into the chamber and then attached to the skin by an adhesive layer on the covering. This provided a stable measuring device as determined by multiple normal evaluations of the capillary blood flow without treatment of nitric oxide.\nA known positive control, methyl nicotinate, was applied to the skin at a concentration of 1/10% in alcohol. […] The vascular dynamics are such that when the blood vessels dilate physical parameters follow Bernoulli's law. […] The laser Doppler device accurately measured these parameters.\nIn these studies, the participants were healthy females aged 30 to 55 years. They were in good health as determined by the medical history and were not taking any prescription medications. All study participants read and signed the informed consent statement prior to any study procedures being performed. […]\nA Moor Instruments DRT4 Laser Doppler Blood Flow Monitor (Devon, England) was used in these studies. The laser Doppler technique measured blood flow in the microcapillaries of the skin that are close to the skin surface and the blood flow in underlying arterioles and venules that help to regulate skin temperature. […]"}, "[3]": {"tested_on": "capillary circulation of the skin", "experiment": "Laser Doppler study of creams in five human subjects (Example 7)", "format": "in vivo", "conditions": "positive control formulation containing 0.1% methyl nicotinate", "excerpt": "This example illustrates delivery of nitric oxide formulations to five human subjects, using procedures and formulations similar to those discussed in Example 5. Each person served as their own control for the testing. A Moor Instruments Laser Doppler was used to determine circulation. […] The formulations used produce positive, almost immediate results when applied to the skin which, in these studies, was manifested by vasodilatation of the cutaneous vascular system. For each subject, the following creams were applied: a negative control formulation (containing no NO), 0.010 gram of a 10,000 ppm NO formulation, 0.020 gram of a 10,000 ppm NO formulation, and a positive control formulation containing 0.1% methyl nicotinate. The formulations were prepared using procedures similar to those discussed in Example 1."}},
  "data": [
    {"smiles": "OCCCO", "note": "[1,3-Propanediol, 1,3-propanediol]", "values": [
      {"measurement": "% Wt. gain", "setting": "[1]", "value": 0.09, "unit": "%"},
      {"measurement": "Wt. Gain", "setting": "[1]", "value": 0.16, "unit": "g"}
    ]},
    {"smiles": "COC(=O)c1cccnc1", "note": "[methyl nicotinate]", "values": [
      {"measurement": "laser Doppler response of positive control", "setting": "[2]", "value": "rapid response typical of the vasodilator"},
      {"measurement": "vasodilatation", "setting": "[3]", "value": "vasodilatation was observed"}
    ]}
  ]
}
